Measurements published in patent USRE48461E1, “Modulation of androgen receptor expression” (Ionis Pharmaceuticals, Inc., priority 2012, dated 2021).
Oligonucleotides are written 5' to 3', each unit as a sugar letter and its base; * is a phosphorothioate linkage, no mark a phosphodiester; rarer units and linkages stand in square brackets, end groups in braces. Plain capitals give the bases only. e = 2'-O-(2-methoxyethyl) (MOE); k = constrained ethyl (cEt); [5mC] = 5-methylcytosine; d = 2'-deoxy (DNA)

Key:
AR mRNA [1] = assay: Dose-dependent antisense inhibition of human AR in HuVEC cells (electroporation, qRT-PCR RTS3559, IC50); format: cell-based
Outline: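 HuVEC cells dosed with antisense oligonucleotides by electroporation and treated approximately 16 hours. AR mRNA quantified by real-time qPCR with primer probe set RTS3559 and normalised to total RNA by RIBOGREEN; IC50 from dose-response.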

AR mRNA [2] = assay: Antisense inhibition of human AR in HuVEC cells, single concentration (electroporation, qRT-PCR RTS3559); format: cell-based
Outline: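 HuVEC cells electroporated with antisense oligonucleotides at a single concentration. AR mRNA quantified by qRT-PCR using human primer-probe set RTS3559 and normalised to total RNA content by RIBOGREEN.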

[3] = Table 31, 46.9 nM, HuVEC, electroporation, approximately 16 hours
[4] = Table 31, 187.5 nM, HuVEC, electroporation, approximately 16 hours
[5] = Table 31, 750.0 nM, HuVEC, electroporation, approximately 16 hours
[6] = Table 31, 3000.0 nM, HuVEC, electroporation, approximately 16 hours
[7] = Table 31, HuVEC, electroporation, approximately 16 hours

In the case of “583818 (antisense kT*kG*kG*dT*d[5mC]*dG*dA*dA*dG*dT*dG*d[5mC]*d[5mC]*k[5mC]*k[5mC]*k[5mC]) [compound 583818]”, the “percent inhibition of AR, 46.9 nM” value (AR mRNA [1]; [3]) is reported as 9%, the “percent inhibition of AR, 187.5 nM” value (AR mRNA [1]; [4]) is reported as 46% and the “percent inhibition of AR, 750.0 nM” value (AR mRNA [1]; [5]) is reported as 71%. The “percent inhibition of AR, 3000.0 nM” value (AR mRNA [1]; [6]) was 84%, the IC50 (AR mRNA [1]; [7]) was 310 nM and the “% inhibition” value (AR mRNA [2]; Table 19, 500 nM oligonucleotide, electroporation, approximately 24 hours, relative to untreated control) was 42%.
In the case of “583700 (antisense kG*kA*kA*dG*dA*dG*dT*dT*d[5mC]*dA*dA*d[5mC]*dA*kG*kG*k[5mC]) [compound 583700]”, the “percent inhibition of AR, 46.9 nM” value (AR mRNA [1]; [3]) is reported as 14%, the “percent inhibition of AR, 187.5 nM” value (AR mRNA [1]; [4]) is reported as 34% and the “percent inhibition of AR, 750.0 nM” value (AR mRNA [1]; [5]) is reported as 57%. The “percent inhibition of AR, 3000.0 nM” value (AR mRNA [1]; [6]) was 71%, the IC50 (AR mRNA [1]; [7]) was 550 nM and the “% inhibition” value (AR mRNA [2]; 500 nM ASO, ~24 h, Table 18) was 36%.
For “583731 (antisense k[5mC]*kG*k[5mC]*dG*d[5mC]*dA*d[5mC]*dG*d[5mC]*dT*d[5mC]*dT*dG*kG*kA*kA) [compound 583731]”, the “percent inhibition of AR, 46.9 nM” value (AR mRNA [1]; [3]) was 18%, the “percent inhibition of AR, 187.5 nM” value (AR mRNA [1]; [4]) was 24% and the “percent inhibition of AR, 750.0 nM” value (AR mRNA [1]; [5]) was 47%. For the same substance, the “percent inhibition of AR, 3000.0 nM” value (AR mRNA [1]; [6]) was 58%, the IC50 (AR mRNA [1]; [7]) was 1310 nM and the “% inhibition” value (AR mRNA [2]; 500 nM ASO, ~24 h, Table 18) was 34%.
“583856 (kA*kA*k[5mC]*d[5mC]*dT*dT*dT*dG*d[5mC]*dA*dT*dT*d[5mC]*kG*kG*k[5mC]; antisense) [compound 583856]” was tested, and the “percent inhibition of AR, 46.9 nM” value (AR mRNA [1]; Table 32, 46.9 nM, HuVEC, electroporation, approximately 16 hours) was 31%, the “percent inhibition of AR, 187.5 nM” value (AR mRNA [1]; Table 32, 187.5 nM, HuVEC, electroporation, approximately 16 hours) was 55% and the “percent inhibition of AR, 750.0 nM” value (AR mRNA [1]; Table 32, 750.0 nM, HuVEC, electroporation, approximately 16 hours) was 74%. The “percent inhibition of AR, 3000.0 nM” value (AR mRNA [1]; Table 32, 3000.0 nM, HuVEC, electroporation, approximately 16 hours) was 89%, the IC50 (AR mRNA [1]; Table 32, HuVEC, electroporation, approximately 16 hours) was 140 nM and the “% inhibition” value (AR mRNA [2]; Table 20, 500 nM oligonucleotide, electroporation, approximately 24 hours, relative to untreated control) was 45%.
For “560071 (eT*eG*eG*eT*eT*dG*dA*dT*dT*dT*dA*dA*dT*dG*dG*eT*eT*eG*e[5mC]*eA) [compound 560071]”, the “percent inhibition of AR” value (AR mRNA [1]; 31.25 nM, HuVEC, ~16 h, Table 6) was 7%, the “percent inhibition of AR” value (AR mRNA [1]; 62.5 nM, HuVEC, ~16 h, Table 6) was 0% and the “percent inhibition of AR” value (AR mRNA [1]; 125.0 nM, HuVEC, ~16 h, Table 6) was 19%. The “percent inhibition of AR” value (AR mRNA [1]; 500.0 nM, HuVEC, ~16 h, Table 6) was 57%, the “percent inhibition of AR” value (AR mRNA [1]; 1000.0 nM, HuVEC, ~16 h, Table 6) was 76% and the IC50 (AR mRNA [1]; HuVEC, ~16 h, Table 6) was 400 nM. For the same substance, the “% inhibition” value (AR mRNA [2]; 500 nM ASO, ~24 h, Table 5) was 73%.
For “583642 (antisense kA*kG*kT*dG*dT*d[5mC]*d[5mC]*dA*d[5mC]*dT*dG*dA*dA*kG*kT*kA) [compound 583642]”, the “percent inhibition of AR, 46.9 nM” value (AR mRNA [1]; Table 30, 46.9 nM, HuVEC, electroporation, approximately 16 hours) was 18%, the “percent inhibition of AR, 187.5 nM” value (AR mRNA [1]; Table 30, 187.5 nM, HuVEC, electroporation, approximately 16 hours) was 35% and the “percent inhibition of AR, 750.0 nM” value (AR mRNA [1]; Table 30, 750.0 nM, HuVEC, electroporation, approximately 16 hours) was 67%. For the same substance, the “percent inhibition of AR, 3000.0 nM” value (AR mRNA [1]; Table 30, 3000.0 nM, HuVEC, electroporation, approximately 16 hours) was 74%, the IC50 (AR mRNA [1]; Table 30, HuVEC, electroporation, approximately 16 hours) was 460 nM and the “% inhibition” value (AR mRNA [2]; 500 nM ASO, ~24 h, Table 17) was 42%.
With “586225 (kG*kT*kT*kG*kA*dT*dT*dT*dA*dA*dT*dG*dG*kT*kT*kG; antisense) [compound 586225]” the “percent inhibition of AR” value (AR mRNA [1]; 46.9 nM, HuVEC, ~16 h, Table 15) was 17%, the “percent inhibition of AR” value (AR mRNA [1]; 187.5 nM, HuVEC, ~16 h, Table 15) was 61% and the “percent inhibition of AR” value (AR mRNA [1]; 750.0 nM, HuVEC, ~16 h, Table 15) was 89%. The “percent inhibition of AR” value (AR mRNA [1]; 3000.0 nM, HuVEC, ~16 h, Table 15) was 97%, the IC50 (AR mRNA [1]; HuVEC cells, electroporation) was 130 nM and the “inhibition of AR mRNA at 46.9 nM” value (AR mRNA [1]; HuVEC cells, electroporation, 46.9 nM ASO) was 17%. The “inhibition of AR mRNA at 187.5 nM” value (AR mRNA [1]; HuVEC cells, electroporation, 187.5 nM ASO) was 61%, the “inhibition of AR mRNA at 750.0 nM” value (AR mRNA [1]; HuVEC cells, electroporation, 750.0 nM ASO) was 89% and the “inhibition of AR mRNA at 3000.0 nM” value (AR mRNA [1]; HuVEC cells, electroporation, 3000.0 nM ASO) was 97%. For the same substance, the IC50 (AR mRNA [1]; HuVEC, ~16 h, Table 15) was 130 nM and the “% inhibition” value (AR mRNA [2]; 1,000 nM ASO, ~24 h, Table 13) was 88%.
For “583920 (kT*kA*kG*dT*dA*dG*dT*d[5mC]*dG*d[5mC]*dG*dA*d[5mC]*kT*k[5mC]*kT; antisense) [compound 583920]”, the “percent inhibition of AR, 46.9 nM” value (AR mRNA [1]; Table 33, 46.9 nM, HuVEC, electroporation, approximately 16 hours) was 11%, the “percent inhibition of AR, 187.5 nM” value (AR mRNA [1]; Table 33, 187.5 nM, HuVEC, electroporation, approximately 16 hours) was 16% and the “percent inhibition of AR, 750.0 nM” value (AR mRNA [1]; Table 33, 750.0 nM, HuVEC, electroporation, approximately 16 hours) was 50%. The “percent inhibition of AR, 3000.0 nM” value (AR mRNA [1]; Table 33, 3000.0 nM, HuVEC, electroporation, approximately 16 hours) was 72%, the IC50 (AR mRNA [1]; Table 33, HuVEC, electroporation, approximately 16 hours) was 760 nM and the “% inhibition” value (AR mRNA [2]; Table 21, 500 nM oligonucleotide, electroporation, approximately 24 hours, relative to untreated control) was 42%.
